For data set [1], the system named is tamoxifen resistant MCF-7 tumors. Nature of the data set: Breast Cancer Model; Xenograft Assay (MCF-7 Derivative). Type of data set: in vivo. The note with it: female nu/nu mice. How it is done:
Female nu/nu mice (with supplemental 17-β Estradiol pellets; 0.72 mg; 60 day slow release) bearing MCF-7 tumors (mean tumor volume 200 mm^3) were treated with Tamoxifen (citrate) by oral gavage. Tumor volume (length×width^2/2) and body weight were monitored twice weekly. Following a significant anti-tumor response in which tumor volume remained static, evident tumor growth was first observed at approximately 100 days of treatment. At 120 days of treatment, tamoxifen dose was increased. Rapidly growing tumors were deemed tamoxifen resistant and selected for in vivo passage into new host animals. Tumor Fragments (˜100 mm^3/animal) from the tamoxifen resistant tumors were subcutaneously implanted into the right flank of female nu/nu mice (with 17-β Estradiol pellets (0.72 mg; 60 day slow release)). Passaged tumors were maintained under constant Tamoxifen selection, and Tumor volume (length×width^2/2) was monitored weekly. When tumor volume reached ˜150-250 mm^3, animals were randomized into treatment groups (mean tumor volume 200 mm^3) and tamoxifen treatment was terminated (except for a tamoxifen control arm). Animals were treated with Vehicle or Compound daily for 4 weeks. Tumor volume and body weight were monitored twice weekly for the duration of the study. At the conclusion of the treatment period; plasma and tumor samples were taken for pharmacokinetic and pharmacodynamic analyses, respectively.

A further data set concerns MCF-7 cells. Nature of the data set: Breast Cancer Cell Viability Assay (MCF7, CellTiter-Glo).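 For all read-outs here: CellTiter-Glo luminescence read-out, background from cell-free medium subtracted, viability expressed against untreated cells, ten-point 1:5 compound dilution series spanning 10 to 0.000005 µM.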 The note with it: for MCF7 Viability Assay: % Viability relative to Fulvestrant: 5 days, 100-{100*[(100-% viability of Example)/(100-% viability of Fulvestrant)]}; for pIC50: read-out: MCF7 Viability Assay IC50, 5 days' compound exposure.
A further data set deals with T1, ER-α (Homo sapiens, UniProt P03372).
T1 construct: endogenous in cells; host or cells: MCF7
T1 sequence (P03372 1-595): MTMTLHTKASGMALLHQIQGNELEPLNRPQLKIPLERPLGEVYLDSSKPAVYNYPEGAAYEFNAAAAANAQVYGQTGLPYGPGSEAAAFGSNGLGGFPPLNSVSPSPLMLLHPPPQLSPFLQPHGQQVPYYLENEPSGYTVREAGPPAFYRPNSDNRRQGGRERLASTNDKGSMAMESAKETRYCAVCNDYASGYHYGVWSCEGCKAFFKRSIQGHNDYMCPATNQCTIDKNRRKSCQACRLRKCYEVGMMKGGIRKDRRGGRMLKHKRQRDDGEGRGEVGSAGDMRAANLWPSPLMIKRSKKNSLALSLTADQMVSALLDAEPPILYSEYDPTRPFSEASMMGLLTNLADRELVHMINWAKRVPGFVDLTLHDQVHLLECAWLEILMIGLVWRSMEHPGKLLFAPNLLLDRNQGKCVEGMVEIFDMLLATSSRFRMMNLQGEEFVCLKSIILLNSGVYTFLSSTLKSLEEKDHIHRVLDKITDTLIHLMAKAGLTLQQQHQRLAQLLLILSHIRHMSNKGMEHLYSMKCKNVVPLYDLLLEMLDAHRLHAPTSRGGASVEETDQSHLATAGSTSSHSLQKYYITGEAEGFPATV
The experiment in a line: Breast Cancer Cell ER-α In-Cell Western Assay (SP1). It is filed as cell-based. The note with it: MCF7 cells, 4 hours; 100-{100*[(100-% ER level of Example)/(100-% ER level of Fulvestrant)]}. As to the method: MCF7 cells were trypsinized and washed twice in Phenol Red Free RPMI containing 5% Charcoal Dextran Stripped serum with 20 mM HEPES and NEAA, then adjusted to a concentration of 200,000 cells per mL with the same medium. […] At 4 hours post compound addition, the cells were fixed by adding 16 μL of 30% formalin to the 32 μL of cells and compound (10% formalin final concentration) for 20 minutes. Cells were then washed twice with PBS Tween 0.1% and then permeabilized in PBS 0.1% Triton (50 μl/well) for additional 15 minutes. The PBS 0.1% triton was decanted, and the cells were washed: LI-COR blocking buffer (50 μL/well) was added, the plate was spun at 3000 rpm, and then the blocking buffer was decanted. Additional LI-COR blocking buffer (50 μL/well) was added, and the cells were incubated overnight at 4° C. The blocking buffer was decanted, and the cells were incubated overnight at 4° C. with SP1 (Thermo Scientific) anti-ER rabbit monoclonal antibody diluted 1:1000 in LI-COR blocking buffer/0.1% Tween-20. Wells which were treated with blocking buffer with Tween but no antibody were used as a background control. Wells were washed twice with PBS Tween 0.1% to remove free SP1 antibodies, and the cells were incubated at room temp for 60-90 minutes in LI-COR goat anti-rabbit IRDye™ 800 CW (1:1000) and DRAQ5 DNA dye (1:10000 of 5 mM stock solution) diluted in LI-COR blocking buffer containing 0.1% Tween-20 and 0.01% SDS. Cells were then washed with 0.1% Tween-20/PBS three times. Plates were scanned on a LI-COR Odyssey infrared imaging system. Integrated intensities in the 800 nm channel and 700 nm channel were measured to determine levels of ER-α and DNA respectively. Percent ER levels were determined as follows: (Integrated intensity 800 nm sample/integrated intensity 700 nm sample)/(Integrated intensity 800 nm untreated cells/integrated intensity 700 nm untreated cells)×100=% ER-α levels.

pIC50: −log10 of the molar value.

What is called pIC50 is −log10 of the IC50, conventionally taken in molar units.

Take `CC1=C(c2ccc(F)cc2)[C@H](c2ccc(OCCN3CC(CF)C3)cc2)Oc2ccc(O)cc21` (single isomer, unassigned) [Example 3]: the “Number of Tumors Smaller at t = 27 days than at Start of study (t = 0 days)” value was 2/8 in data set [1] (10mpk oral dose each day), 3/8 in data set [1] (30mpk oral dose each day) and 5/8 in data set [1] (100mpk oral dose each day). Moreover, the “MCF7 Viability Assay: % Viability relative to Fulvestrant” value in the data set with MCF-7 cells came to 8%. For the same compound, the negative logarithm of the IC50 (pIC50) in the data set with MCF-7 cells was 9.77.

Regarding `CC1=C(c2cccc(O)c2)[C@H](c2ccc(OC[C@H](C)N3CC[C@@H](C)C3)cc2)Oc2ccc(O)cc21` [(S)-3-(3-Hydroxyphenyl)-4-methyl-2-(4-((S)-2-((R)-3-methylpyrrolidin-1-yl)propoxy)phenyl)-2H-chromen-6-ol, reference compound], the “Number of Tumors Smaller at t = 27 days than at Start of study (t = 0 days)” value in data set [1] (10mpk oral dose each day) is 0/8; in data set [1] (30mpk oral dose each day), 1/8; in data set [1] (100mpk oral dose each day), 1/8. In addition, the “MCF7 Viability Assay: % Viability relative to Fulvestrant” value with MCF-7 cells was 8%. Besides, the pIC50 in the data set with MCF-7 cells was 9.89.

Consider `CC1=C(c2cccc(O)c2)C(c2ccc(OCCN3CC(C)C3)cc2)Oc2ccc(O)cc21` (stereo not shown) [Example 31, 3-(3-Hydroxyphenyl)-4-methyl-2-(4-(2-(3-methylazetidin-1-yl)ethoxy)phenyl)-2H-chromen-6-ol], for which, on ER-α, the “ER-α In-Cell Western Assay (SP1): % ER-α remaining relative to Fulvestrant” value worked out at 14%. Also, in the data set on MCF-7 cells, the “MCF7 Viability Assay: % Viability relative to Fulvestrant” value amounted to 13% and the pIC50 was 9.70.

(Values after patent US9475798B2, “Azetidine estrogen receptor modulators and uses thereof” (Genentech, Inc., priority 2013, dated 2016).)
